The values that follow come from patent publication US7202049B2, “Mitogen-activated protein kinase p38-2 and methods of use therefor” (Signal Pharmaceuticals, Inc., priority 1996, dated 2007).

SMILES strings stand for the structures.

The test system of the assay is p38-2. As to the kind of experiment: Immune complex kinase assay of HA-tagged p38-2 from transiently transfected COS cells, GST-ATF2 substrate. It counts as cell-based, human. The text has this:
An expression vector encoding epitope-tagged p38-2 (3×HA-p38-2-SRα3) was constructed by adding sequence encoding three copies of a 10 amino acid hemagglutinin (HA) epitope to the N-terminus of p38-2 and ligating the resulting cDNA into the expression vector SRα3. To investigate the pattern of regulation of p38-2, COS cells were transiently transfected with HA-p38-2-SRα3 (as described above) by the DEAE-Dextran method (Kawai and Nishizawa, Mol. Cell. Biol. 4:1172–1174, 1984).
Following treatment, cell lysates were prepared by solubilization in lysis buffer as described (Derijard et al., Cell 76:1025–1037, 1994), and protein concentration of lysates was determined by Bradford assay (Bradford, Ann Biochem. 72:248–254, 1976). Cell lysates were used in an immune complex kinase assay with GST-ATF2 substrate, prepared as previously described (Gupta et al., Science 267:389–39, 1995). The assay was generally performed as described previously (Derijard et al., Cell 76:1025–1037, 1994; Lin et al., Science 268:286–290, 1995) with minor modifications. The concentration of [γ-^32P]ATP was 50 nM, and 30 μg cell lysate was immunoprecipitated for 2 hours with the anti-HA antibody 12CA5 (Boehringer-Mannheim Corp., Indianapolis, Ind.) and then incubated with 1 μg of recombinant substrate.

Take `[Cl-].[Na+]` [NaCl]: the “increase in p38-2 activity (ATF2 phosphorylation)” value is “No increase”.
`COc1ccc(C[C@H]2NC[C@H](O)[C@H]2OC(C)=O)cc1` [anisomycin]: the “induction of p38-2 (kinase activity, ATF2 phosphorylation)” value (COS cells transfected with HA-p38-2, anisomycin 50 ng/mL for 45 minutes) was “strong induction”.
